# Experimental data from patent publication US8921370B2, “Bicyclo[3.2.1]octyl amide derivatives and uses of same” (H. Lundbeck A/S, priority 2010, dated 2014).
# pIC50, pKi: −log10 of the molar value.
# Key:
# [1] = biological target: T1, hmGluR5 (Homo sapiens (Human), UniProt P41594); assay: Calcium mobilization assay (FLIPR), negative allosteric activity, EC80 glutamate; type: cell-based; conditions: HEK 293 cells expressing hmGluR5; for Emax: HEK293, FLIPR maximum inhibition of EC80 glutamate response, read-out: hmGlu5 FLIPR % inhibition; for pIC50: inhibition of EC80 glutamate response
# Method: The cDNA for rat metabotropic glutamate receptor 5 (rmGluR5) and the cDNA for human metabotropic glutamate receptor 5 […] gifts from S. Nakanishi (Kyoto University, Kyoto, Japan). […] Twenty-four hours prior to assay, cells were seeded into 384-well black wall microtiter plates coated with poly-D-lysine. […] After excess dye was discarded, cells were washed in assay buffer and layered with a final volume equal to 30 μL/well. […] Laser excitation energy was adjusted so that basal fluorescence readings were approximately 10,000 relative fluorescent units. […] Basal readings derived from negative controls were subtracted from all samples. Maximum change in fluorescence was calculated for each well. Concentration-response curves derived from the maximum change in fluorescence were analyzed by nonlinear regression (Hill equation). A negative modulator can be identified from these concentration-response curves if a compound produces a concentration dependent inhibition of the EC80 glutamate response.
# [2] = biological target: T1, hmGluR5; assay: Radioligand binding assay (MPEP binding site); conditions: radioligand binding to the MPEP site, 5 nM radioligand; Ki by Cheng-Prusoff
# Method: Binding assays were performed as described in [J. A. O'Brien et al. Mol. Pharmacol., 2003, 64, 731-740] with slight modifications, including that a radioligand that binds to the […] (MPEP) binding site was used in place of [^3H]-MPEP. Briefly, after thawing, the membrane homogenates were resuspended in 50 mM Tris-HCl and 0.9% NaCl binding buffer at pH 7.4 to a final assay concentration of 20 μg is protein/well for radioligand filtration binding. Incubations included 5 nM radioligand, membranes and either buffer or varying concentrations of compound. Samples were incubated for 60 min at room temperature with shaking. Non-specific binding was defined with 10 μM cold MPEP when using the radioligand. After incubation, samples were filtered over a GF/C filter (presoaked in 0.25% polyethyleneimine (PEI)) and then washed 4 times using a Tomtec® Harvester 96® Mach III cell harvester (Tomtec, Hamden, Conn.) with 0.5 mL ice-cold 50 mM Tris-HCl (pH 7.4). IC50 values were derived from the inhibition curve and Ki values were calculated according to the Cheng and Prusoff equation of Ki=IC50/(1+[L]/Kd) described in [Y. Cheng and W. H. Prusoff Biochem. Pharmacol. 1973, 22, 3099-3108] where [L] is the concentration of radioligand and Kd is its dissociation constant at the receptor, derived from the saturation isotherm. The Ki values of compounds of the invention were <10 μM.
# T1 sequence (P41594 21-1212): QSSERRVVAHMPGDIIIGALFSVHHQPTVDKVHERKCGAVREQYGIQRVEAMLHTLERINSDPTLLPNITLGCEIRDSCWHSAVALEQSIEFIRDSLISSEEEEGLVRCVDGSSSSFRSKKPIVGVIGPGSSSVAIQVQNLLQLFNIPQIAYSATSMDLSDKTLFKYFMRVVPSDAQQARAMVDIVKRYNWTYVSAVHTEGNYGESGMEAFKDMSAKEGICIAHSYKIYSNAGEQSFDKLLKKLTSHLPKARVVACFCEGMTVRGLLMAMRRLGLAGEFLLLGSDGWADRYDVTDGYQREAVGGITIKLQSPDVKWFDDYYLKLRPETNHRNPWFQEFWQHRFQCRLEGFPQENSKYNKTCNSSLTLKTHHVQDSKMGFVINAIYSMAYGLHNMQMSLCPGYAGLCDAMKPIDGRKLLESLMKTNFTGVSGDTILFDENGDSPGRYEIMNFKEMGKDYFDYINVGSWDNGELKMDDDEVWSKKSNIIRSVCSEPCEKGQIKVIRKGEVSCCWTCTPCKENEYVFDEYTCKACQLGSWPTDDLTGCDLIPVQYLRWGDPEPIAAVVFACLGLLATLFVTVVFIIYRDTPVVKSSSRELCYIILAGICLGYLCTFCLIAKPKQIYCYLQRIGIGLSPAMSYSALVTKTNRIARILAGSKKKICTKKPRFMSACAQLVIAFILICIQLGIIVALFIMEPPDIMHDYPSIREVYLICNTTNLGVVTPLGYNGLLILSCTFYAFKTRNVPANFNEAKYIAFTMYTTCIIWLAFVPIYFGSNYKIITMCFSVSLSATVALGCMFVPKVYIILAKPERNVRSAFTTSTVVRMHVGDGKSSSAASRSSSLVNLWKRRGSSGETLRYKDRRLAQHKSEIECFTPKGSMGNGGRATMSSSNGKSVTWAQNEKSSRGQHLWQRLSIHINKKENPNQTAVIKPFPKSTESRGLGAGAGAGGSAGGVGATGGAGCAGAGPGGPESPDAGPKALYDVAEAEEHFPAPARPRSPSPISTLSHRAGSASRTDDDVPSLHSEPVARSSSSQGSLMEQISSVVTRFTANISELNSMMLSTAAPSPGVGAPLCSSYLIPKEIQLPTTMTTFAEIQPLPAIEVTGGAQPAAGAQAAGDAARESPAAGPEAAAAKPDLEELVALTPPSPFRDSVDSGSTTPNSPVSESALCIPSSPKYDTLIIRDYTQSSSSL
Compound,Emax [1] [%],pIC50 [1],pKi [2]
"Cc1cncc(C(=O)N[C@@]23CCC[C@@](NC(=O)c4cccc(F)c4)(CC2)C3)n1 [Example 161, 6-Methyl-pyrazine-2-carboxylic acid [(1S,5R)-5-(3-fluoro-benzoylamino)-bicyclo[3.2.1]oct-1-yl]-amide]",90,6.87,5.92
"Cc1cccc(C(=O)NC23CCCC(NC(=O)c4cccc(Cl)c4)(CC2)C3)n1 (stereo not drawn) [Example 2, N-(5-(3-chlorobenzamido)bicyclo[3.2.1]octan-1-yl)-6-methylpicolinamide]",89,8.43,7.57
"Cc1ncc(C(=O)NC23CCCC(NC(=O)c4cccc(Cl)c4)(CC2)C3)s1 (stereo not drawn) [Example 15, N-(5-(3-chlorobenzamido)bicyclo[3.2.1]octan-1-yl)-2-methylthiazole-5-carboxamide]",88,7.59,6.47
"Cc1cccc(NC(=O)C23CCCC(NC(=O)c4nc(C)cs4)(CC2)C3)n1 (stereo not drawn) [Example 171, 4-methyl-N-(5-(6-methylpyridin-2-ylcarbamoyl)bicyclo[3.2.1]octan-1-yl)thiazole-2-carboxamide]",94,8.33,7.19
"Cc1cncc(C(=O)NC23CCCC(NC(=O)c4cccc(F)c4)(CC2)C3)n1 (stereo not drawn) [Example 6, 6-Methyl-pyrazine-2-carboxylic acid [5-(3-fluoro-benzoylamino)-bicyclo[3.2.1]oct-1-yl]-amide]",92,8.05,7.11
"Cc1cncc(C(=O)N[C@]23CCC[C@](NC(=O)c4cccc(F)c4)(CC2)C3)n1 [Example 160, 6-Methyl-pyrazine-2-carboxylic acid [(1R,5S)-5-(3-fluoro-benzoylamino)-bicyclo[3.2.1]oct-1-yl]-amide]",89,8.41,7.46
"Cc1cccc(C(=O)NC23CCCC(C(=O)Nc4ccnc(C)n4)(CC2)C3)n1 (stereo not drawn) [Example 178, 6-methyl-N-(5-(2-methylpyrimidin-4-ylcarbamoyl)bicyclo[3.2.1]octan-1-yl)picolinamide]",90,7.42,6.43
"Cc1cccc(NC(=O)C23CCCC(NC(=O)c4cccc(Cl)c4)(CC2)C3)n1 (stereo not drawn) [Example 176, 5-(3-chlorobenzamido)-N-(6-methylpyridin-2-yl)bicyclo[3.2.1]octane-1-carboxamide]",91,7.48,6.30
"Cc1cccc(C(=O)NC23CCCC(NC(=O)c4ccncc4)(CC2)C3)c1 (stereo not drawn) [Example 36, N-(5-(3-methylbenzamido)bicyclo[3.2.1]octan-1-yl)isonicotinamide]",87,7.46,6.55
"Cc1cccc(C(=O)N[C@@]23CCC[C@@](NC(=O)c4ccccn4)(CC2)C3)n1 [Example 126, 6-Methyl-pyridine-2-carboxylic acid {(1S,5R)-5-[(pyridine-2-carbonyl)-amino]-bicyclo[3.2.1]oct-1-yl}-amide]",86,9.49,7.41
